Source: US8088791B2, “Antibacterial agents” (Biots Scientific Management Pty Ltd, priority 2006, dated 2012)
In brackets after ≈: the same amount, converted by molar mass. Like-named read-outs stand apart in the source and are kept apart here.

Tests used:
Bacillus subtilis 168CA = assay: Minimum Inhibitory Concentration (MIC) testing, broth microdilution, Bacillus subtilis; format: cell-based; conditions: Bacillus subtilis 168CA; read-out: Bacillus subtilis MICs Activity
Outline: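 Broth microdilution followed NCCLS M7-A5, in rich broth such as Mueller Hinton, inoculum at OD 0.09 diluted 1:100, compounds in 1.6% DMSO before inoculum. After 16–20 h at 37 °C, MIC was the lowest concentration without visible growth. Score A: ≦8 μg/ml, B: 16–64 μg/ml, C: >64 μg/ml.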

[1] = system: Staphylococcus aureus ATCC29213; assay: Minimum Inhibitory Concentration (MIC) testing, broth microdilution, Staphylococcus aureus; format: cell-based; conditions: Staphylococcus aureus ATCC29213; read-out: Staphylococcus aureus MICs Activity
Outline: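 Broth microdilution per NCCLS M7-A5 in Mueller Hinton broth, with compound in 1.6% DMSO and inoculum at OD 0.09 diluted 1:100. Plates incubated 16–20 h at 37°C. MIC is the lowest concentration with no visible growth; scored A ≤8, B 16–64, C >64 μg/ml.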

[2] = system: various bacterial species; assay: Minimum Inhibitory Concentration (MIC) testing, broth microdilution, other bacterial species; format: cell-based
Protocol: Compounds of this invention were tested for antimicrobial activity by susceptibility testing in liquid media. MICs for compounds against each strain were determined by a broth microdilution method according to the National Committee for Clinical Laboratory Standards (NCCLS) guidelines. (NCCLS. 2000. Methods for dilution antimicrobial susceptibility tests for bacteria that grow aerobically—fifth edition. Approved standard M7-A5. NCCLS, Wayne, Pa.)
Briefly, test compounds are prepared in 100 μl of 1.6% DMSO solution in multiwell plates. Several bacterial colonies from a freshly streaked plate are transferred to an appropriate rich broth, such as Mueller Hinton. The cell suspension is adjusted to an optical density of 0.09 and further diluted 1:100 with warm 2× broth. This cell suspension is dispensed into the wells containing compound solution so that the final volume is 200 μl. The plates are incubated overnight (16-20 hours) at 37° C. and turbidity is scored by eye and quantified spectrophotometrically. The MIC is defined as the lowest concentration inhibiting visible growth.
Some of the Examples were also tested for activity against other bacterial species. […] Activities were again scored as ‘A’ if the MIC was ≦8 micrograms/ml, ‘B’ if the MIC was 16 to 64 micrograms/ml and ‘C’ if the MIC was greater than 64 micrograms/ml.

Staphylococcus aureus = assay: mouse Staphylococcus aureus septicaemia model of infection; format: in vivo; conditions: survival at day 7 of infected mice; single intraperitoneal dose of 100 mg/kg at 1 hour after intraperitoneal inoculation with a lethal dose of Staphylococcus aureus
Protocol: Some of the Examples were also tested for activity in a mouse Staphylococcus aureus septicaemia model of infection.

[3] = Staphylococcus epidermidis, ATCC12228, read-out: MIC Activity Staphylococcus epidermidis ATCC 12228
[4] = Staphylococcus haemolyticus, ATCC29970, read-out: MIC Activity Staphylococcus haemolyticus ATCC 29970
[5] = Bacillus cereus, ATCC14579, read-out: MIC Activity Bacillus cereus ATCC 14579
[6] = Staphylococcus saprophyticus, ATCC15305, read-out: MIC Activity Staphylococcus saprophyticus ATCC 15305

Compound | MIC (Bacillus subtilis 168CA) [µg/mL] | MIC [1] [µg/mL] | melting point [°C] | MIC [2, 3] [µg/mL] | MIC [2, 4] [µg/mL] | MIC [2, 5] [µg/mL] | MIC [2, 6] [µg/mL] | Percent survival (Staphylococcus aureus) [%]
NC(=O)c1c(F)ccc(OCc2nc(-c3ccc(Cl)cc3)no2)c1F [Example 246, 3-[3-(4-Chlorophenyl)-1,2,4-oxadiazol-5-yl]methoxy-2,6-difluorobenzenecarboxamide] | < 8 | < 8 |  | < 8 | < 8 | < 8 | < 8 | 100
COc1ccc(-c2noc(COc3ccc(F)c(C(N)=O)c3F)n2)cc1 [Example 241, 2,6-Difluoro-3-[3-(4-methoxyphenyl)-1,2,4-oxadiazol-5-yl]methoxybenzenecarboxamide] | < 8 | < 8 |  |  |  |  |  | 100
NC(=O)c1c(F)ccc(OCc2nc(-c3ccc(Cl)cc3)cs2)c1F [Example 106, 3-[4-(4-Chloro-phenyl)-thiazol-2-ylmethoxy]2,6-difluoro-benzamide] | < 8 | < 8 |  | < 8 | < 8 | < 8 | < 8 | 100
Cc1ccc(-c2noc(COc3ccc(F)c(C(N)=O)c3F)n2)cc1 [Example 247, 2,6-Difluoro-3-[3-(4-methylphenyl)-1,2,4-oxadiazol-5-yl]methoxybenzenecarboxamide] | < 8 | < 8 |  |  |  |  |  | 100
N#CCCCCCCCCCOc1cccc(C(N)=O)c1 [Example 93, 3-[(9-Cyanononyl)oxy]benzenecarboxamide] | < 8 | 16 to 64 (≈ 55.5 to 222 µM) | 96 to 97 |  |  |  |  | 
CCCC/C=C\CCCCOc1cccc(C(N)=O)c1 [Example 45, 3-[(Z)-5-Decenyloxy]benzenecarboxamide] | < 8 | < 8 | 98 to 100 |  |  |  |  | 
C#CCCCCCCCCOc1cccc(C(N)=O)c1 [Example 67, 3-(9-Decynyloxy)benzenecarboxamide] | < 8 | < 8 | 111 to 112 |  |  |  |  | 
CCCCCCCCCOc1cc(C(N)=O)ccn1 [Example 94, 2-(Nonyloxy)isonicotinamide] | < 8 | < 8 | 108 to 110 |  |  |  |  | 
Cc1cncc(COc2cccc(C(N)=O)c2)c1 [Example 170, 3-[(5-Methyl-3-pyridinyl)methoxy]benzenecarboxamide] | > 64 | > 64 | 152 to 154 |  |  |  |  | 
CCCCCCOc1c(F)cc(F)c(C(N)=O)c1F [Example 79, 2,4,6-Trifluoro-3-(hexyloxy)benzenecarboxamide] | 16 to 64 (≈ 58.1 to 232 µM) | 16 to 64 (≈ 58.1 to 232 µM) | 89 to 90 |  |  |  |  | 

Second part, led by results:

MIC (Bacillus subtilis 168CA) [µg/mL] | MIC [1] [µg/mL] | melting point [°C] | Compound | MIC [2, 3] [µg/mL] | MIC [2, 4] [µg/mL] | MIC [2, 5] [µg/mL] | MIC [2, 6] [µg/mL] | Percent survival (Staphylococcus aureus) [%]
< 8 | < 8 | 209 to 210 | NC(=O)c1c(F)ccc(OCc2nc(-c3ccc(O)cc3)no2)c1F [Example 242, 2,6-Difluoro-3-[3-(4-hydroxyphenyl)-1,2,4-oxadiazol-5-yl]methoxybenzenecarboxamide] | < 8 | < 8 |  |  | 
< 8 | < 8 | 150 to 152 | NC(=O)c1c(F)ccc(OCc2cc3cc(C(F)(F)F)ccc3s2)c1F [Example 208, 2,6-Difluoro-3-[5-(trifluoromethyl)-1-benzothiophen-2-yl]methoxybenzenecarboxamide] |  |  | < 8 | < 8 | 
< 8 | < 8 | 64 to 66 | CCCCCCCCCOc1ccc(F)c(C(N)=O)c1Cl [Example 78, 2-Chloro-6-fluoro-3-(nonyloxy)benzenecarboxamide] |  |  |  |  | 
< 8 | < 8 | 184 to 186 | CCc1cccc2sc(COc3ccc(F)c(C(N)=O)c3F)nc12 [Example 223, 3-[(4-Ethyl-1,3-benzothiazol-2-yl)methoxy]-2,6-difluorobenzenecarboxamide] |  |  |  |  | 
< 8 | < 8 | 190 to 191 | NC(=O)c1c(F)ccc(OCc2nc3ccc(Cl)cc3s2)c1F [Example 227, 3-[(6-Chloro-1,3-benzothiazol-2-yl)methoxy]-2,6-difluorobenzenecarboxamide] |  |  |  |  | 
< 8 | < 8 | 75 to 77 | CCCCCCCCCOc1ccc(Cl)c(C(N)=O)c1F [Example 76, 6-Chloro-2-fluoro-3-(nonyloxy)benzenecarboxamide] |  |  |  |  | 
< 8 | 16 to 64 (≈ 47.9 to 191 µM) | 201 to 202 | Cc1cccc2sc(COc3ccc(F)c(C(N)=O)c3F)nc12 [Example 228, 2,6-Difluoro-3-[(4-methyl-1,3-benzothiazol-2-yl)methoxy]benzenecarboxamide] |  |  |  |  | 
< 8 | < 8 | 130 to 132 | C#CCCCCCCOC(=O)COc1ccc(F)c(C(N)=O)c1F [Example 90, 7-Octynyl 2-[3-(aminocarbonyl)-2,4-difluorophenoxy]acetate] |  |  |  |  | 
< 8 | < 8 | 220 to 222 | NC(=O)c1ccnc(OCc2nc3cc(Cl)ccc3s2)c1 [Example 222, 2-[(5-Chloro-1,3-benzothiazol-2-yl)methoxy]isonicotinamide] |  |  |  |  | 
< 8 | 16 to 64 (≈ 50.9 to 204 µM) | 216 to 218 | NC(=O)c1c(F)ccc(OCc2ccc3ccccc3n2)c1F [Example 200, 2,6-Difluoro-3-(2-quinolinylmethoxy)benzenecarboxamide] |  |  |  |  | 
< 8 | < 8 | 244 to 246 | CCCc1ccc2nc(COc3ccc(F)c(C(N)=O)c3F)sc2c1 [Example 231, 2,6-Difluoro-3-[(6-propyl-1,3-benzothiazol-2-yl)methoxy]benzenecarboxamide] |  |  |  |  | 
